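Step 1: Grow cells in 96-well plates. Step 2: Expose to compound for 48 hours at 5 concentrations. Step 3: Interpolate endpoints linearly; if unreached, use highest concentration. TGI: total growth inhibition.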
What was measured:
Experiment in all cases: DTP human tumour cell line panel, 48 h
[1] = tested on: 786-0 renal
[2] = tested on: A498 renal
[3] = tested on: A549 NSCLC
[4] = tested on: ACHN renal
[5] = tested on: BT-549 breast
[6] = tested on: CAKI-1 renal
[7] = tested on: CCRF-CEM leukemia
[8] = tested on: COLO 205 colon
[9] = tested on: DU-145 prostate
[10] = tested on: EKVX NSCLC
[11] = tested on: HCT-116 colon
[12] = tested on: HCT-15 colon
[13] = tested on: HL-60(TB) leukemia
[14] = tested on: HOP-62 NSCLC
[15] = tested on: HOP-92 NSCLC
[16] = tested on: HS 578T breast
[17] = tested on: HT29 colon
[18] = tested on: IGROV1 ovarian
[19] = tested on: K-562 leukemia
[20] = tested on: KM12 colon
[21] = tested on: LOX IMVI melanoma
[22] = tested on: M14 melanoma
[23] = tested on: MALME-3M melanoma
[24] = tested on: MDA-MB-231 breast
[25] = tested on: MDA-MB-435
[26] = tested on: MDA-N
[27] = tested on: MOLT-4 leukemia
[28] = tested on: NCI-H226 lung
[29] = tested on: NCI-H23 lung
[30] = tested on: NCI-H460 lung
[31] = tested on: NCI-H522 lung
[32] = tested on: NCI/ADR-RES ovarian
[33] = tested on: OVCAR-3 ovarian
[34] = tested on: OVCAR-5 ovarian
[35] = tested on: OVCAR-8 ovarian
[36] = tested on: PC-3 prostate
[37] = tested on: RPMI-8226 leukemia
[38] = tested on: RXF 393 renal
[39] = tested on: SF-268 CNS
[40] = tested on: SF-295 CNS
[41] = tested on: SF-539 CNS
[42] = tested on: SK-MEL-2 melanoma
[43] = tested on: SK-MEL-28 melanoma
[44] = tested on: SK-MEL-5 melanoma
[45] = tested on: SK-OV-3 ovarian
[46] = tested on: SN12C renal
[47] = tested on: SNB-19 CNS
[48] = tested on: SNB-75 CNS
[49] = tested on: SW-620 colon
[50] = tested on: T-47D breast
[51] = tested on: TK-10 renal
[52] = tested on: U251 CNS
[53] = tested on: UACC-257 melanoma
[54] = tested on: UACC-62 melanoma
[55] = tested on: UO-31 renal

Measured: TGI

COC(=O)CCCc1c(-c2[nH]c3ccccc3c2CCCC(=O)OC)[nH]c2ccccc12
> 100 µM: all assays above

Source: PubChem BioAssay (NCI)
